The record followed here is US20250197424A1, “QUINOLINE COMPOUND AND USE THEREOF” (SHANGHAI PHARMACEUTICALS HOLDING CO., LTD., priority 2022, published 2025).

A word on the pIC50: it is −log10 of the IC50, conventionally taken in molar units.

pIC50: −log10 of the molar value. Structures can show the parent of a compound that is named as a salt. Where two headings read alike, the source gives them in different places.

The target in one test is GTP-KRAS-G12D:SOS1 (Homo sapiens (Human), UniProt P01116, G12D). As to the kind of experiment: GTP-KRAS-G12D:SOS1 binding inhibition. The protocol: (§1) The IC50 of the compounds was fitted using a nonlinear regression equation with GraphPad Prism 8. The results are presented in Table 2: • Negative control: DMSO • Positive control: 100 μM BI-2852
(§2) The following nonlinear fitting formula was used to obtain the IC50 (half-maximal inhibitory concentration) of the compounds:
(§3) [formula] • X: logarithm of the compound concentration • Y: 665/615 Ratio

The target in the next test is GTP-KRAS-WT:SOS1 (Homo sapiens (Human), UniProt P01116). As to the kind of experiment: KRAS_WT and SOS1 binding inhibition (KRAS-WT/SOS1 binding kit, 665/615 ratio). As to conditions: GTP 10 μM.
Text: To detect the inhibitory capability of small molecule compounds on the binding activity between KRAS_WT and SOS1 using a drug screening system based on the binding of KRAS_WT and SOS1 interaction.
a) BI-2852 was used as a positive control, with its stock solution as the first dilution point, followed by a 3-fold dilution, making a total of 10+0 dilutions. Similarly, the first dilution point of the test compounds was also their respective stock solutions, followed by a 3-fold dilution, making a total of 11+0 dilutions. Using Echo, 0.2 μL of the gradient-diluted compound solutions were transferred into a 384-well plate, with each compound tested in duplicate. The final DMSO concentration was 1%. The plate was centrifuged at 1000 rpm for 1 minute. The final concentrations of the positive controls were 100, 33.33, 11.11, 3.70, 1.23, 0.412, 0.137, 0.046, 0.015, 0.005, and 0 μM. The final concentrations of the test compounds were […], 0.01, and 0 μM.
b) KRAS_WT from the kit was prepared with GTP at a final concentration of 10 μM in the dilution buffer, and 5 μL was transferred into the 384-well reaction plate. The plate was centrifuged at 1000 rpm for 1 minute.
c) Subsequently, 5 μL of the SOS1 mixture was transferred into the 384-well reaction plate. The plate was centrifuged at 1000 rpm for 1 minute and incubated at 25° C. for 15 minutes.
d) 10 μL of the detection mixture was transferred into the 384-well reaction plate. The plate was centrifuged at 1000 rpm for 1 minute and incubated overnight at 4° C.
e) The […] and emission wavelength at 615 nm were read using an Envision multimode plate reader. The 665/615 ratio signal intensity was used to characterize the enzyme activity.
as §1, §2, §3

Another test concerns the target GTP-KRAS-G12D:CRAF (Homo sapiens (Human), UniProt P01116, G12D). As to the kind of experiment: GTP-KRAS-G12D:CRAF binding inhibition. As to the method:
The IC50 of the compounds was fitted using a nonlinear regression equation with GraphPad Prism 8. The results are presented in Table 2: • Negative control: DMSO • Positive control: 100 μM BI-2852 The following nonlinear fitting formula was used to obtain the IC50 (half-maximal inhibitory concentration) of the compounds: [formula] • X: logarithm of the compound concentration • Y: 665/615 Ratio

For `F[C@H]1CN2CCC[C@@]2(COc2nc3c(c(N4CC5CCC(C4)N5)n2)CCC2(CCc4c(Cl)cccc42)C3)C1` (single isomer, unassigned) [Compound 1a, (S or R)-4′-((1R,5S)-3,8-Diazabicyclo[3.2.1]octan-3-yl)-4-chloro-2′-((2R,7aS)-2-fluorotetrahydro-1H-pyrrolizin-7a(5H)-ylmethoxy)-2,3,5′,8′-tetrahydro-6′H-spiro[indene-1,7′-quinazoline]dihydrochloride], the pIC50 at GTP-KRAS-G12D:SOS1 was 7.34; on GTP-KRAS-WT:SOS1, 5.39; on GTP-KRAS-G12D:CRAF it was 6.48.

For `Oc1cc(Cl)c2c(c1)C1(CC2)CCc2c(nc(OC[C@@]34CCCN3C[C@H](F)C4)nc2N2CC3CCC(C2)N3)C1` (single isomer, unassigned) [Compound 2a, (S or R)-4′-((1R,5S)-3,8-Diazabicyclo[3.2.1]octan-3-yl)-4-chloro-2′-((2R,7aS)-2-fluorotetrahydro-1H-pyrrolizin-7a(5H)-ylmethoxy)-2,3,5′,8′-tetrahydro-6′H-spiro[indene-1,7′-quinazolin]-6-ol dihydrochloride], the pIC50 on GTP-KRAS-G12D:SOS1 was 7.78; at GTP-KRAS-WT:SOS1, 6.60; at GTP-KRAS-G12D:CRAF, 7.49.

For the compound `CC1CC2(CCc3c(nc(OC[C@@]45CCCN4C[C@H](F)C5)nc3N3CC4CCC(C3)N4)C2)c2cc(O)cc(Cl)c21` (single isomer, unassigned) [Compound 7a, (1R or 1S)-4′-((1R,5S)-3,8-Diazabicyclo[3.2.1]octan-3-yl)-4-chloro-2′-(((2R,7aS)-2-fluorotetrahydro-1H-pyrrolizin-7a(5H)-yl)methoxy)-3-methyl-2,3,5′,8′-tetrahydro-6′H-spiro[indene-1,7′-quinazolin]-6-ol dihydrochloride], the values for the pIC50 at GTP-KRAS-G12D:SOS1, on GTP-KRAS-WT:SOS1 and at GTP-KRAS-G12D:CRAF were 7.67, 6.61 and 7.62, respectively.

In the case of `CC1CC2(CCc3c(nc(OC[C@@]45CCCN4C[C@H](F)C5)nc3N3C[C@H]4CC[C@@H](C3)N4)C2)c2cc(O)cc(Cl)c21` (single isomer, unassigned) [Compound 7aa, (1R or 1S, 3R or 3S)-4′-((1R,5S)-3,8-diazabicyclo[3.2.1]octan-3-yl)-4-chloro-2′-(((2R,7aS)-2-fluorotetrahydro-1H-pyrrolizin-7a(5H)-yl)methoxy)-3-methyl-2,3,5′,8′-tetrahydro-6′H-spiro[indene-1,7′-quinazolin]-6-ol dihydrochloride], the pIC50 at GTP-KRAS-G12D:SOS1 (dihydrochloride) was 8.00; on GTP-KRAS-WT:SOS1 (dihydrochloride) it was 6.63; on GTP-KRAS-G12D:CRAF (dihydrochloride) it was 7.79.

Take `CC1CC2(CCc3c(nc(OC[C@@]45CCCN4C[C@H](F)C5)nc3N3C[C@H]4CC[C@@H](C3)N4)C2)c2cc(O)cc(Cl)c21` (single isomer, unassigned) [Compound 7ab, (1R or 1S, 3S or 3R)-4′-((1R,5S)-3,8-diazabicyclo[3.2.1]octan-3-yl)-4-chloro-2′-(((2R,7aS)-2-fluorotetrahydro-1H-pyrrolizin-7a(5H)-yl)methoxy)-3-methyl-2,3,5′,8′-tetrahydro-6′H-spiro[indene-1,7′-quinazolin]-6-ol dihydrochloride]: the pIC50 was 7.76 at GTP-KRAS-G12D:SOS1 (dihydrochloride), 6.23 at GTP-KRAS-WT:SOS1 (dihydrochloride) and 7.07 at GTP-KRAS-G12D:CRAF (dihydrochloride).

On to `Oc1cc(Cl)c2c(c1)C1(CC2)CCc2c(nc(OC[C@@]34CCCN3C[C@H](F)C4)nc2N2CC3CCC(C2)N3)C1F` (single isomer, unassigned) [Compound 8a, (1S or 1R,8'S or 8′R)-4′-((1R,5S)-3,8-Diazabicyclo[3.2.1]octan-3-yl)-4-chloro-8′-fluoro-2′-(((2R,7aS)-2-fluorotetrahydro-1H-pyrrolizin-7a(5H)-yl)methoxy)-2,3,5′,8′-tetrahydro-6′H-spiro[indene-1,7′-quinazolin]-6-ol dihydrochloride], for which the pIC50 on GTP-KRAS-G12D:SOS1 was 7.87; on GTP-KRAS-WT:SOS1 it was 7.21; at GTP-KRAS-G12D:CRAF, 7.71.

`Oc1cc(Cl)c2c(c1)C1(CC2)CCc2c(nc(OC[C@@]34CCCN3C[C@H](F)C4)nc2N2CC3CCC(C2)N3)C1F` (single isomer, unassigned) [Compound 8d, (1R or 1S, 8'S or 8′R)-4′-((1R,5S)-3,8-diazabicyclo[3.2.1]octan-3-yl)-4-chloro-8′-fluoro-2′-(((2R,7aS)-2-fluorotetrahydro-1H-pyrrolizin-7a(5H)-yl)methoxy)-2,3,5′,8′-tetrahydro-6′H-spiro[indene-1,7′-quinazolin]-6-ol dihydrochloride]: the results for the pIC50 on GTP-KRAS-G12D:SOS1, at GTP-KRAS-WT:SOS1 and at GTP-KRAS-G12D:CRAF were 6.94, 5.32 and 6.31, respectively.

For the compound `Oc1cc(Cl)c2c(c1)C1(CC2)CCc2c(N3CC4CCC(C3)N4)nc(OC[C@@]34CCCN3C[C@H](F)C4)nc2C1(F)F` (single isomer, unassigned) [Compound 9a, (S or R)-4′-((1R,5S)-3,8-Diazabicyclo[3.2.1]octan-3-yl)-4-chloro-8′,8′-difluoro-2′-(((2R,7aS)-2-fluorotetrahydro-1H-pyrrolizin-7a(5H)-yl)methoxy)-2,3,5′,8′-tetrahydro-6′H-spiro[indene-1,7′-quinazolin]-6-ol dihydrochloride], the pIC50 at GTP-KRAS-G12D:SOS1 is 7.82; at GTP-KRAS-WT:SOS1, 6.25; at GTP-KRAS-G12D:CRAF it was 7.33.

As to `Oc1cc(-c2cc3c4c(nc(OC[C@@]56CCCN5C[C@H](F)C6)nc4c2F)N2C[C@@H]4CC[C@@H](N4)[C@H]2CO3)c2ccccc2c1` [Compound 3, dihydrochloride], the pIC50 is 7.92 on GTP-KRAS-G12D:SOS1, 7.10 at GTP-KRAS-WT:SOS1 and 7.91 on GTP-KRAS-G12D:CRAF.

In the case of “(R or S)-4-((5aS,6R,9S)-1,3-difluoro-13-((2R,7aS)-2-fluorotetrahydro-1H-pyrrolizin-7a(5H)-ylmethoxy)-5a,6,7,8,9,10-hexahydro-5H-6,9-epiminoazepino[2′,1′:3,4][1,4]oxazepino[5,6,7-de]quinazolin-2-yl)-5-ethynyl-6-fluoronaphthalen-2-ol [4b′]”, the pIC50 at GTP-KRAS-G12D:SOS1 is 7.74; on GTP-KRAS-WT:SOS1, 8.25; at GTP-KRAS-G12D:CRAF, 8.09.
